IC50 data for 35 compounds are collected here from patent publication US9221832B2, “Heterocyclic amide derivatives as P2X7 receptor antagonists” (ACTELION PHARMACEUTICALS LTD., priority 2011, dated 2015).

Molecules are shown by their SMILES. A value given as a limit tells only on which side of the number the result lay.

human recombinant P2X7 receptor, sequence (Q99572 whole entry): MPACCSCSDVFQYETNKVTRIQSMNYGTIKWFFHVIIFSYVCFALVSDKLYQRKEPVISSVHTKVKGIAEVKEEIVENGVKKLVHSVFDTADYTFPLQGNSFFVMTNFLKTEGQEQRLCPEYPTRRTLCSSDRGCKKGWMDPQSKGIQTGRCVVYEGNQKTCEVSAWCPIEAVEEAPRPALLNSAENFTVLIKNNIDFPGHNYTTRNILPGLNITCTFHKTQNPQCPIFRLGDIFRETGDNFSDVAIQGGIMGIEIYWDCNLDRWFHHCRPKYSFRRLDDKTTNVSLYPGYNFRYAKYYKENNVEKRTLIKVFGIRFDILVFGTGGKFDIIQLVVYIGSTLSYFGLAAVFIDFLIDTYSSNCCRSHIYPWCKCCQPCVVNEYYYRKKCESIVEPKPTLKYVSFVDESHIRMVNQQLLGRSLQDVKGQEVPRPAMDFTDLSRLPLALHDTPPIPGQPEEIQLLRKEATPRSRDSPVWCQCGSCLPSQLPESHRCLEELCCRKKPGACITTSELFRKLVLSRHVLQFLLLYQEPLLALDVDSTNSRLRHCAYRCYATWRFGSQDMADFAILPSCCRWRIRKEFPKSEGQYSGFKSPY

The experiment concerns the target human recombinant P2X7 receptor (Homo sapiens (Human), UniProt Q99572). Kind of experiment: YO-PRO assay: P2X7 receptor antagonistic activity. Format: cell-based. As to conditions: HEK cells expressing human P2X7. The procedure:
The P2X7 receptor antagonistic activity of the compounds of formula (I) is determined in accordance with the following experimental method.
Cell Line Generation and YO-PRO Assay
Cell line generation was performed in general according to established molecular cloning protocols. Specifically, RNA was extracted from human whole blood using the Qiagen RNeasy kit (Qiagen, CH) according to the manufacturer's instructions. Subsequently cDNA was made (Superscript II, Invitrogen AG, CH) and the human P2X7 gene (genbank ref. BC011913) was amplified with the following primers: […] and […]. The amplified sequence was subsequently ligated into a pcDNA3.1 (+) NotI, NheI digested plasmid. […] Following a 24 h exposure to DNA, cells were trypsinized and re-seeded at low density in the presence of 250 μg Geneticin. Geneticin resistant cells were then selected during two consecutive rounds of cloning by serial limiting dilution with visual inspection. Individual clones were screened for P2X7 expression by applying ATP and recording the resultant uptake of YO-PRO1. Specific cell clones were chosen based on RNA and protein expression. HEK cells stably expressing P2X7 were used to screen drugs using the YO-PRO1 assay. Cells were grown to confluency in adherent culture at 37° C. in a humidified 5% CO2 incubator (split 1/5 every 3-4 days with DMEM, 10% FCS, 1% Penicillin/Streptomycin, 250 μg/ml Geneticin). Adherent cells were detached by incubation with Trypsine (1 ml per 165 cm^2 dish) for 2 minutes, then washed off with 10 ml PBS (without Mg^2+ and Ca^2+), and resuspended in DMEM, 10% FCS, 1% Penicillin/Streptomycin, no Geneticin. […] During this time period, four time points were taken. Each time point comprised the average of several measurements made within a few seconds. […] The FLIPR tetra was equipped with Molecular Devices Screen Works system control software to define and run experimental protocols. […] For IC50 measurements the maximum intensity is plotted against the concentration of compound to determine IC50 values.
`Cc1cc(Cl)cc(Cl)c1CC(=O)NC1COc2ncccc21` (racemic) [Example 5, rac-2-(2,4-Dichloro-6-methyl-phenyl)-N-(2,3-dihydro-furo[2,3-b]pyridin-3-yl)-acetamide]: the IC50 was 12 nM. As for `Cc1cc(Cl)cc(Cl)c1CC(=O)NC1CCOc2ncccc21` (racemic) [Example 8, rac-2-(2,4-Dichloro-6-methyl-phenyl)-N-(3,4-dihydro-2H-pyrano[2,3-b]pyridin-4-yl)-acetamide], the IC50 was determined as 43 nM. Then `N#Cc1ccccc1CC(=O)NC1COc2ncccc21` (racemic) [Example 10, rac-2-(2-Cyano-phenyl)-N-(2,3-dihydro-furo[2,3-b]pyridin-3-yl)-acetamide], with 2980 nM. Then `Cc1ccccc1CC(=O)NC1COc2ncccc21` (racemic) [Example 11, rac-N-(2,3-Dihydro-furo[2,3-b]pyridin-3-yl)-2-o-tolyl-acetamide], with 1310 nM; and `COc1ccccc1CC(=O)NC1COc2ncccc21` (racemic) [Example 12, rac-N-(2,3-Dihydro-furo[2,3-b]pyridin-3-yl)-2-(2-methoxy-phenyl)-acetamide], with over 6000 nM. Consider `N#Cc1ccc(CC(=O)NC2COc3ncccc32)cc1` (racemic) [Example 13, rac-2-(4-Cyano-phenyl)-N-(2,3-dihydro-furo[2,3-b]pyridin-3-yl)-acetamide], for which the IC50 is over 5420 nM. Then `Cc1ccc(CC(=O)NC2COc3ncccc32)cc1` (racemic) [Example 14, rac-N-(2,3-Dihydro-furo[2,3-b]pyridin-3-yl)-2-p-tolyl-acetamide], with over 5430 nM; and `O=C(Cc1ccc(Cl)cc1)NC1COc2ncccc21` (racemic) [Example 15, rac-2-(4-Chloro-phenyl)-N-(2,3-dihydro-furo[2,3-b]pyridin-3-yl)-acetamide], with 1410 nM. Then `O=C(Cc1ccc(C(F)(F)F)cc1)NC1COc2ncccc21` (racemic) [Example 16, rac-N-(2,3-Dihydro-furo[2,3-b]pyridin-3-yl)-2-(4-trifluoromethyl-phenyl)-acetamide], with 1170 nM; and `O=C(Cc1ccc(F)cc1F)NC1COc2ncccc21` (racemic) [Example 17, rac-2-(2,4-Difluoro-phenyl)-N-(2,3-dihydro-furo[2,3-b]pyridin-3-yl)-acetamide], with 522 nM; and `O=C(Cc1ccc(F)cc1C(F)(F)F)NC1COc2ncccc21` (racemic) [Example 18, rac-N-(2,3-Dihydro-furo[2,3-b]pyridin-3-yl)-2-(4-fluoro-2-trifluoromethyl-phenyl)-acetamide], with 393 nM. In the case of `COc1ccc(CC(=O)NC2COc3ncccc32)c(OC)c1` (racemic) [Example 19, rac-N-(2,3-Dihydro-furo[2,3-b]pyridin-3-yl)-2-(2,4-dimethoxy-phenyl)-acetamide], the IC50 was over 6660 nM. As to `COc1ccc(CC(=O)NC2COc3ncccc32)c(F)c1` (racemic) [Example 20, rac-N-(2,3-Dihydro-furo[2,3-b]pyridin-3-yl)-2-(2-fluoro-4-methoxy-phenyl)-acetamide], the IC50 amounted to 578 nM. With `O=C(Cc1ccc(Cl)c(Cl)c1)NC1COc2ncccc21` (racemic) [Example 21, rac-2-(3,4-Dichloro-phenyl)-N-(2,3-dihydro-furo[2,3-b]pyridin-3-yl)-acetamide], the IC50 stood at 473 nM. As for `O=C(Cc1c(F)cc(F)cc1F)NC1COc2ncccc21` (racemic) [Example 22, rac-N-(2,3-Dihydro-furo[2,3-b]pyridin-3-yl)-2-(2,4,6-trifluoro-phenyl)-acetamide], the concentration for half-maximal inhibition (IC50) came out at 884 nM. As to `CCc1cc(Cl)cc(Cl)c1CC(=O)NC1COc2ncccc21` (racemic) [Example 32, rac-2-(2,4-Dichloro-6-ethyl-phenyl)-N-(2,3-dihydro-furo[2,3-b]pyridin-3-yl)-acetamide], the IC50 amounted to 23 nM. Consider `O=C(Cc1c(Cl)cc(Cl)cc1C(F)(F)F)NC1COc2ncccc21` (racemic) [Example 33, rac-2-(2,4-Dichloro-6-trifluoromethyl-phenyl)-N-(2,3-dihydro-furo[2,3-b]pyridin-3-yl)-acetamide], for which the half-maximal inhibitory concentration (IC50) came to 242 nM. Then `O=C(Cc1cccc(C(F)(F)F)c1Cl)NC1COc2ncccc21` (racemic) [Example 34, rac-2-(2-Chloro-3-trifluoromethyl-phenyl)-N-(2,3-dihydro-furo[2,3-b]pyridin-3-yl)-acetamide], with 7.4 nM.

Turning to `O=C(Cc1ccc(Cl)cc1C(F)(F)F)NC1COc2ncccc21` (racemic) [Example 35, rac-2-(4-Chloro-2-trifluoromethyl-phenyl)-N-(2,3-dihydro-furo[2,3-b]pyridin-3-yl)-acetamide], the IC50 came out at 193 nM. The value for `O=C(Cc1ccc(Oc2ccccc2)cc1)NC1COc2ncccc21` (racemic) [Example 36, rac-N-(2,3-Dihydro-furo[2,3-b]pyridin-3-yl)-2-(4-phenoxy-phenyl)-acetamide] was 1480 nM; that for `N#Cc1cc(Cl)cc(Cl)c1CC(=O)NC1COc2ncccc21` (racemic) [Example 37, rac-2-(2,4-Dichloro-6-cyano-phenyl)-N-(2,3-dihydro-furo[2,3-b]pyridin-3-yl)-acetamide] was 324 nM; that for `O=C(Cc1c(Cl)cc(Cl)cc1C1CC1)NC1COc2ncccc21` (racemic) [Example 39, rac-2-(2,4-Dichloro-6-cyclopropyl-phenyl)-N-(2,3-dihydro-furo[2,3-b]pyridin-3-yl)-acetamide] was 54 nM. Take `Cc1c(Cl)cc(C(F)(F)F)c(CC(=O)NC2COc3ncccc32)c1F` (racemic) [Example 40, rac-2-(4-Chloro-2-fluoro-3-methyl-6-trifluoromethyl-phenyl)-N-(2,3-dihydro-furo[2,3-b]pyridin-3-yl)-acetamide]: the IC50 stood at 1580 nM.

As for `O=C(Cc1cc(F)c(Cl)cc1Cl)NC1COc2ncccc21` (racemic) [Example 41, rac-2-(2,4-Dichloro-5-fluoro-phenyl)-N-(2,3-dihydro-furo[2,3-b]pyridin-3-yl)-acetamide], the IC50 stood at 332 nM. Then `Cc1ccc(F)c(CC(=O)NC2COc3ncccc32)c1Cl` (racemic) [Example 42, rac-2-(2-Chloro-6-fluoro-3-methyl-phenyl)-N-(2,3-dihydro-furo[2,3-b]pyridin-3-yl)-acetamide], with 641 nM; and `O=C(Cc1cc(Cl)ccc1C(F)(F)F)NC1COc2ncccc21` (racemic) [Example 43, rac-2-(5-Chloro-2-trifluoromethyl-phenyl)-N-(2,3-dihydro-furo[2,3-b]pyridin-3-yl)-acetamide], with 8050 nM; and `O=C(Cc1ccccc1Cl)NC1CCOc2ncccc21` (racemic) [Example 44, rac-2-(2-Chloro-phenyl)-N-(3,4-dihydro-2H-pyrano[2,3-b]pyridin-4-yl)-acetamide], with 2000 nM. As for `N#Cc1ccc(CC(=O)NC2CCOc3ncccc32)cc1` (racemic) [Example 45, rac-2-(4-Cyano-phenyl)-N-(3,4-dihydro-2H-pyrano[2,3-b]pyridin-4-yl)-acetamide], the IC50 is over 6460 nM. Then `O=C(Cc1ccc(C(F)(F)F)cc1)NC1CCOc2ncccc21` (racemic) [Example 46, rac-N-(3,4-Dihydro-2H-pyrano[2,3-b]pyridin-4-yl)-2-(4-trifluoromethyl-phenyl)-acetamide], with 1350 nM.

For the compound `O=C(Cc1ccc(Oc2ccccc2)cc1)NC1CCOc2ncccc21` (racemic) [Example 48, rac-N-(3,4-Dihydro-2H-pyrano[2,3-b]pyridin-4-yl)-2-(4-phenoxy-phenyl)-acetamide], the IC50 came to 3300 nM. `O=C(Cc1cccc(C(F)(F)F)c1Cl)NC1CCOc2ncccc21` (racemic) [Example 49, rac-2-(2-Chloro-3-trifluoromethyl-phenyl)-N-(3,4-dihydro-2H-pyrano[2,3-b]pyridin-4-yl)-acetamide]: the IC50 worked out at 17 nM.

Take `O=C(Cc1c(F)cccc1Cl)NC1CCOc2ncccc21` (racemic) [Example 50, rac-2-(2-Chloro-6-fluoro-phenyl)-N-(3,4-dihydro-2H-pyrano[2,3-b]pyridin-4-yl)-acetamide]: the IC50 came out at 2630 nM. Take `O=C(Cc1ccc(F)cc1F)NC1CCOc2ncccc21` (racemic) [Example 51, rac-2-(2,4-Difluoro-phenyl)-N-(3,4-dihydro-2H-pyrano[2,3-b]pyridin-4-yl)-acetamide]: the IC50 was determined as 1690 nM. Consider `O=C(Cc1ccc(F)cc1C(F)(F)F)NC1CCOc2ncccc21` (racemic) [Example 52, rac-N-(3,4-Dihydro-2H-pyrano[2,3-b]pyridin-4-yl)-2-(4-fluoro-2-trifluoromethyl-phenyl)-acetamide], for which the IC50 is 1870 nM.

As for `O=C(Cc1cccc(Cl)c1Cl)NC1CCOc2ncccc21` (racemic) [Example 54, rac-2-(2,3-Dichloro-phenyl)-N-(3,4-dihydro-2H-pyrano[2,3-b]pyridin-4-yl)-acetamide], the IC50 was 67 nM.
